Measured values from patent publication US11944615B2, “Combination therapy for treatment of LKB1 deficient cancers” (New York University, priority 2020, dated 2024).

What was measured:
[1] = test system: KL allograft tumor; assay: KL subcutaneous allograft tumor growth in syngeneic wild-type mice; format: in vivo; conditions: KL allograft implanted subcutaneously in right flank, single agent, I.P. 5 days/week
Excerpt: FIG. 6. NAMPT inhibition reduced KL lung tumor growth in vivo. A) Lung tumor volume measurements of KL subcutaneous allograft tumors following treatment with indicated drugs. B) Average tumor volumes over time in KL tumors with indicated treatments. Arrow denotes treatment start time. C) Percent change in KL tumor volume after 6 days of treatment with indicated drugs. D) Images of subcutaneous KL tumor allografts at endpoint of treatment experiment. *P<0.05.
All animal experiments were reviewed and approved by the Institutional Animal Care and Use Committee (IACUC) at NYU Langone Health. For lung tumor growth assays, 10^6 KP and KL syngeneic mouse lung cancer cells were implanted into male C57BL/6 mice at 7 weeks of age via tail vein injection. After 8 weeks, mice were imaged by Mill to assess tumor volume. For drug treatment experiments, 10^6 KLA cells were injected subcutaneously in the right flank of female C57BL/6 mice at 7 weeks of age or injected via tail vein injection. […] Tumor volumes were measured using digital calipers or Mill. Mouse weights were measured weekly to adjust total dosage and assess the effects of drug combinations on mouse health. […]

[2] = test system: PD-L1; assay: Western blot of PD-L1 in KP cells with SIK or LKB1 knockout treated with NAM; format: cell-based, mouse
Description: A) Western blot of indicated proteins in KL or KP cells with SIK or LKB1 knockout and treated with NAM or NAD^+ for 6 days.
Lung cancer cell lines were cultured in RPMI 1640 (Gibco, Thermo Fisher Scientific) supplemented with 10% fetal bovine serum (FBS, Gibco). The KPC Kras^LA1-G12D p53^−/− (KP) and KLA Kras^LA1-G12D;Lkb1^−/− (KL) murine lung cancer cell lines were generated by dissociation of KP and KL lung tumor nodules to single cell suspensions, seeded on tissue culture plates, and cultured in RPMI 1640 (Gibco, Thermo Fisher Scientific) supplemented with 10% fetal bovine serum (FBS, Gibco). […] All cells were cultured at 37° C. in a humidified incubator at 5% CO2 and verified on a weekly basis to be mycoplasma negative.

Row | SMILES | tumor growth [1] | PD-L1 levels ([2]; KP cells with SIK or LKB1 KO, NAM treatment for 6 days) | PD-L1 levels ([2]; KP cells with wild-type SIK or LKB1, NAM treatment)
1 | O=C(/C=C/c1cccnc1)NCCCCC1CCN(C(=O)c2ccccc2)CC1 [FK866] | reduced lung tumor growth only after 6 days of treatment | – | –
2 | NC(=O)c1cccnc1 [NAM, nicotinamide] | – | marked reduction in PD-L1 levels | no effect on PD-L1 levels
